# Reference: ChEMBL document CHEMBL5634084, “Design and optimization of selective and potent CDK9 inhibitors with flavonoid scaffold for the treatment of acute myeloid leukemia” (Eur J Med Chem, 2023)
# pIC50: −log10 of the molar value. Calls of active or inactive are those of the source. The rule behind the calls is not given here.
# Tests used:
# [1] = biological target: CDK2/Cyclin A2 (Homo sapiens) (UniProt P24941+P20248); assay: Inhibition of CDK2/CyclinA2 (unknown origin) at 100 nM by ADP-Glo assay relative to control; type: protein-complex assay
# MV4-11 [2] = assay: Antiproliferative activity against human MV4-11 cells assessed as reduction in cell viability measured after 72 hrs; type: functional, cell-based; conditions: MV4-11, 72 h
# [3] = biological target: CDK9/cyclin T1 (Homo sapiens) (UniProt O60563+P50750); assay: Inhibition of CDK9/CyclinT1 (unknown origin) at 100 nM by ADP-Glo assay relative to control; type: protein-complex assay
# HL-60 = assay: Antiproliferative activity against human HL-60 cells assessed as reduction in cell viability measured after 72 hrs; type: functional, cell-based; conditions: HL-60, 72 h
# SW480 = assay: Antiproliferative activity against human SW480 cells assessed as reduction in cell viability measured after 72 hrs; type: functional, cell-based; conditions: SW480, 72 h
# [4] = biological target: Cyclin-dependent kinase 4/cyclin D1 (Homo sapiens, UniProt P11802); assay: Inhibition of CDK4/CyclinD1 (unknown origin) by ADP-Glo assay; type: protein-complex assay
# Sequence of Cyclin-dependent kinase 4/cyclin D1 (P11802 whole entry): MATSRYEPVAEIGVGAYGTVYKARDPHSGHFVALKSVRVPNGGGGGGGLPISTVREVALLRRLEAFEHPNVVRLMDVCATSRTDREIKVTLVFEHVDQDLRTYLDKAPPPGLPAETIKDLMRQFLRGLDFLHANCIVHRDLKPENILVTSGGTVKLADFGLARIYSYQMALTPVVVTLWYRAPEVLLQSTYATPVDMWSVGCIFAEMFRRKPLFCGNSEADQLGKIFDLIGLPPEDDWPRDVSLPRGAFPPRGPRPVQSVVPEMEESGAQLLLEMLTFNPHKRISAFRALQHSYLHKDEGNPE
# Sequence of Cyclin-dependent kinase 4/cyclin D1 (P24385 whole entry, further chain): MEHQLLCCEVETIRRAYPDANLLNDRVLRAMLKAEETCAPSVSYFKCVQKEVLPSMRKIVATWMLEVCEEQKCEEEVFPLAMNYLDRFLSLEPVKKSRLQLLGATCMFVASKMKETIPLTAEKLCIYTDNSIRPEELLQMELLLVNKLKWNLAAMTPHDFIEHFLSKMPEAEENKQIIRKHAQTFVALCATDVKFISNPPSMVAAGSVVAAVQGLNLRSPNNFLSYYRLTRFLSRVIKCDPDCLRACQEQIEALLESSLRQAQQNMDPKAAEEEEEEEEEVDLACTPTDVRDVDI
# [5] = Cytotoxicity against human HEK293 cells assessed as reduction in cell viability measured after 72 hrs; type: toxicity, cell-based
# [6] = Metabolic stability of the compound in rat plasma at 10 uM measured for 60 mins by LC-MS/MS analysis; type: ADME, cell-free; conditions: 1 h
# MOLM-13 = assay: Antiproliferative activity against human MOLM-13 cells assessed as reduction in cell viability measured after 72 hrs; type: functional, cell-based; conditions: MOLM-13, 72 h
# HepG2 = assay: Antiproliferative activity against human HepG2 cells assessed as reduction in cell viability measured after 72 hrs; type: functional, cell-based; conditions: HepG2, 72 h
# [7] = Toxicity in BALB/c mouse xenografted with human MV4-11 cells assessed as effect on body weight at 10 to 20 mg/kg, iv qd; type: organism-based; conditions: in vivo, dose 10-20 mg/kg
# THP-1 = assay: Antiproliferative activity against human THP-1 cells assessed as reduction in cell viability measured after 72 hrs; type: functional, cell-based; conditions: THP-1, 72 h
# MCF7 = assay: Antiproliferative activity against human MCF7 cells assessed as reduction in cell viability measured after 72 hrs; type: functional, cell-based; conditions: MCF7, 72 h
# A549 = assay: Antiproliferative activity against human A549 cells assessed as reduction in cell viability measured after 72 hrs; type: functional, cell-based; conditions: A549, 72 h
# [8] = Metabolic stability of the compound in mouse liver microsomes at 10 uM measured for 60 mins in presence of NADPH by LC-MS/MS analysis; type: ADME, Microsome; conditions: 1 h
# HT-29 = assay: Antiproliferative activity against human HT-29 cells assessed as reduction in cell viability measured after 72 hrs; type: functional, cell-based; conditions: HT-29, 72 h
# [9] = Metabolic stability of the compound in rat liver microsomes at 10 uM measured for 60 mins in presence of NADPH by LC-MS/MS analysis; type: ADME, Microsome; conditions: 1 h
# MV4-11 [10] = assay: Antitumor activity against human MV4-11 cells xenografted in BALB/c mouse assessed as inhibition of tumor growth at 10 mg/kg, iv qd and measured every 2 days; type: functional; conditions: MV4-11, 48 h, read-out: TGI
# HCT-116 = assay: Antiproliferative activity against human HCT-116 cells assessed as reduction in cell viability measured after 72 hrs; type: functional, cell-based; conditions: HCT-116, 72 h
# [11] = Cytotoxicity against human L02 cells assessed as reduction in cell viability measured after 72 hrs; type: toxicity, cell-based
# CDK7/Cyclin H/MNAT1 = CDK7/Cyclin H/MNAT1 (Homo sapiens, UniProt P50613); assay: Inhibition of CDK7/Cyclin H/MAT1 (unknown origin) by ADP-Glo assay; type: protein-complex assay
# Sequence of CDK7/Cyclin H/MNAT1 (P51946 whole entry): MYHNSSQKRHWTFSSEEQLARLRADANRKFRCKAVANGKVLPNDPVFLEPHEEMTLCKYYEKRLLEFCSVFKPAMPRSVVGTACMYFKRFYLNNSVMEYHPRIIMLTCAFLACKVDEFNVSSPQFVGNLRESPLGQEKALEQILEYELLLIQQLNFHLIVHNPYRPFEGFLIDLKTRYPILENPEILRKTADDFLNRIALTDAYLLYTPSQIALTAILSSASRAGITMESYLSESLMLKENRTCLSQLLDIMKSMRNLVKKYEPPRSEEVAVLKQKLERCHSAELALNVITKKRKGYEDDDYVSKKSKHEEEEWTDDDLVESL
# Sequence of CDK7/Cyclin H/MNAT1 (P50613 whole entry): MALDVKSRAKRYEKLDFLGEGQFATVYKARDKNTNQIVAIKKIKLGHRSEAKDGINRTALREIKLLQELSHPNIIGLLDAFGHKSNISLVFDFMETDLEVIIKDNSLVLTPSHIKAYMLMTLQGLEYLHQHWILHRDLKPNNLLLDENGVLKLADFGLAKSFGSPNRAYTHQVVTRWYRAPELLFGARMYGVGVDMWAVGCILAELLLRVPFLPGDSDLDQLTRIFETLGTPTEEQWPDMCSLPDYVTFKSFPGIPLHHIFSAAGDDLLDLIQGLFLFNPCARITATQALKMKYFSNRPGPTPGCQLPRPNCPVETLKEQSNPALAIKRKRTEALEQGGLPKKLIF
# Sequence of CDK7/Cyclin H/MNAT1 (P51948 whole entry, further chain): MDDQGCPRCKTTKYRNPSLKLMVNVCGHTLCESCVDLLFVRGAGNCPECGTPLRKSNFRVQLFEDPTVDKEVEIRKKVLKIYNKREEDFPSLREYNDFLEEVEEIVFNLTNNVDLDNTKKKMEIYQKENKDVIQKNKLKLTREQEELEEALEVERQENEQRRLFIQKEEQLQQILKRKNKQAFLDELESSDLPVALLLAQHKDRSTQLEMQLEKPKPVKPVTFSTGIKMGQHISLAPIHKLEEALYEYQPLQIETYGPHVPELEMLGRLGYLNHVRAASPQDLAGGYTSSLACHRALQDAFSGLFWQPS
# [12] = Toxicity in BALB/c mouse xenografted with human MV4-11 cells assessed as animal's mortality at 10 to 20 mg/kg, iv qd; type: organism-based; conditions: in vivo, dose 10-20 mg/kg
# [13] = Solubility of the compound in water at pH 7.4; type: physicochemical
# BT-549 = assay: Antiproliferative activity against human BT-549 cells assessed as reduction in cell viability measured after 72 hrs; type: functional, cell-based; conditions: BT-549, 72 h
# CDK6/cyclin D1 = CDK6/cyclin D1 (Homo sapiens, UniProt Q00534); assay: Inhibition of CDK6/CyclinD1 (unknown origin) by ADP-Glo assay; type: protein-complex assay
# Sequence of CDK6/cyclin D1 (P24385 whole entry): as the sequence (P24385 whole entry, further chain) above
# Sequence of CDK6/cyclin D1 (Q00534 whole entry): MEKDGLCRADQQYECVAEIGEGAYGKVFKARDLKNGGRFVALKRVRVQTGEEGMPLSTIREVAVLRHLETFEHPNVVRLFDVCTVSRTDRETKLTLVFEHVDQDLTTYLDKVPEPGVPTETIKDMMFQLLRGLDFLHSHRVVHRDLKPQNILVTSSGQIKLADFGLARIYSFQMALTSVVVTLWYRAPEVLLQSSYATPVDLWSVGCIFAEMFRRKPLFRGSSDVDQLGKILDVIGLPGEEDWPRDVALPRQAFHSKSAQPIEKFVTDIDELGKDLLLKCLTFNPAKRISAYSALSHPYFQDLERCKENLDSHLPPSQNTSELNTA
# MV4-11 [14] = assay: Antitumor activity against human MV4-11 cells xenografted in BALB/c mouse assessed as inhibition of tumor growth at 20 mg/kg, iv qd and measured every 2 days; type: functional; conditions: MV4-11, 48 h, read-out: TGI
# [15] = Inhibition of CDK1/CyclinA2 (unknown origin) by ADP-Glo assay; design: species or system Homo sapiens
smiles,measurement,setting,value
COc1cc(O)c2c(=O)cc(-c3ccc(N4CCN(C)CC4)cc3)oc2c1Oc1c(C)n[nH]c1C,inhibition,[1],14.2%
same,pIC50,MV4-11 [2],5.69
same,inhibition,[3],75.8%
COc1cc(O)c2c(=O)cc(-c3ccc(N4CCOCC4)cc3)oc2c1N1CCNCC1,inhibition,[1],17.5%
same,pIC50,MV4-11 [2],6.77
same,inhibition,[3],74.4%
COc1cc(O)c2c(=O)cc(-c3ccc(N4CCN(C)CC4)cc3)oc2c1,inhibition,[1],inactive
same,pIC50,MV4-11 [2],5.69
same,inhibition,[3],5.1%
COc1cc(O)c2c(=O)cc(-c3ccc(N4CCN(C)CC4)cc3)oc2c1N1CCNCC1,pIC50,HL-60,6.92
same,pIC50,SW480,6.00
same,pIC50,[4],6.51
same,IC50 at 72 h,[5],25500 nM
same,Stability,[6],Stable
same,pIC50,MOLM-13,5.95
same,pIC50,HepG2,5.75
same,Activity,[7],Non-Toxic
same,pIC50,THP-1,5.37
same,pIC50,MCF7,5.82
same,pIC50,A549,5.94
same,Stability,[8],Stable
same,inhibition,[1],8.3%
same,pIC50,HT-29,6.06
same,Stability,[9],Stable
same,inhibition in vivo at 10 mg/kg,MV4-11 [10],48%
same,pIC50,HCT-116,6.16
same,IC50 at 72 h,[11],17700 nM
same,pIC50,CDK7/Cyclin H/MNAT1,5.34
same,Activity,[12],Non-Toxic
same,pIC50,MV4-11 [2],7.10
same,solubility,[13],450 µg/mL
same,pIC50,BT-549,5.73
same,pIC50,CDK6/cyclin D1,5.65
same,inhibition in vivo at 20 mg/kg,MV4-11 [14],61%
same,pIC50,[15],5.75
same,inhibition,[3],75%
COc1cc(O)c2c(=O)cc(-c3ccc(N4CCN(C)CC4)cc3)oc2c1N1CCOCC1,inhibition,[1],inactive
same,pIC50,MV4-11 [2],6.96
same,inhibition,[3],44.4%
COc1cc(O)c2c(=O)cc(-c3ccc(N4CCN(C)CC4)cc3)oc2c1N1CCCCC1,inhibition,[1],inactive
same,pIC50,MV4-11 [2],5.91
same,inhibition,[3],47.5%
COc1cc(O)c2c(=O)cc(-c3ccc(N4CCCNCC4)cc3)oc2c1N1CCNCC1,inhibition,[1],18.9%
same,pIC50,MV4-11 [2],6.68
same,inhibition,[3],78%
COc1cc(O)c2c(=O)cc(-c3ccc(N4CCN(C)CC4)cc3)oc2c1[C@H]1CCN(C)C[C@H]1O,inhibition,[1],5.4%
same,pIC50,MV4-11 [2],6.74
same,inhibition,[3],64.9%
COc1cc(O)c2c(=O)cc(-c3ccc(N4CCC(N5CCOCC5)CC4)cc3)oc2c1N1CCNCC1,inhibition,[1],4.7%
same,pIC50,MV4-11 [2],6.51
same,inhibition,[3],78%
COc1cc(O)c2c(=O)cc(-c3ccc(N4CCC(N5CCOCC5)CC4)cc3)oc2c1C1=CCN(C)CC1,inhibition,[1],29%
same,pIC50,MV4-11 [2],6.48
same,inhibition,[3],90.9%
COc1cc(O)c2c(=O)cc(-c3ccc(N4CCN(C)CC4)cc3)oc2c1N1CCC(N2CCOCC2)CC1,inhibition,[1],24.5%
same,pIC50,MV4-11 [2],6.68
same,inhibition,[3],70%
COc1cc(O)c2c(=O)cc(-c3ccc(N4CCCC4)cc3)oc2c1N1CCNCC1,inhibition,[1],4.7%
same,pIC50,MV4-11 [2],6.77
same,inhibition,[3],79.6%
COc1cc(O)c2c(=O)cc(-c3ccc(N4CCCNCC4)cc3)oc2c1C1=CCN(C)CC1,inhibition,[1],32.5%
same,pIC50,MV4-11 [2],6.82
same,inhibition,[3],99%
COc1cc(O)c2c(=O)cc(-c3ccc(N4CCN(C)CC4)cc3)oc2c1N1CCN(C)CC1,inhibition,[1],23.5%
same,pIC50,MV4-11 [2],7.00
same,inhibition,[3],75.8%
COc1cc(O)c2c(=O)cc(-c3ccc(N4CCN(C)CC4)cc3)oc2c1[C@H]1CCN(C)[C@@H]1CO,inhibition,[1],inactive
same,pIC50,MV4-11 [2],7.15
same,inhibition,[3],1.4%
COc1cc(O)c2c(=O)cc(-c3ccc(N4CCNCC4)cc3)oc2c1C1=CCN(C)CC1,inhibition,[1],inactive
same,pIC50,MV4-11 [2],6.89
same,inhibition,[3],98.6%
COc1cc(O)c2c(=O)cc(-c3ccc(N4CCNCC4)cc3)oc2c1N1CCNCC1,inhibition,[1],inactive
same,pIC50,MV4-11 [2],7.00
same,inhibition,[3],70.8%
COc1cc(O)c2c(=O)cc(-c3ccc(N4CCN(C)CC4)cc3)oc2c1N1CCCC1,inhibition,[1],inactive
same,pIC50,MV4-11 [2],7.15
same,inhibition,[3],17.6%
